Experimental data taken from US20090227619A1, “Harmine derivatives, intermediates used in their preparations, preparation processes and use therefo” (priority 2003, published 2009).
Values joined by “and” are separate entries in the source; they are usually repeats but may differ in a detail not shown here. Equal values may be shown once. Read-outs that look alike come from different tables or passages of the source.

Key:
NIH3T3 = experiment: In vitro cytotoxicity, IC50 by MTT method, NIH3T3; assay type: cell-based
Protocol: (§1) Culture medium powder RPMI1640 was dissolved in a proper amount of tri-distilled water according to the instruction of the product. […] It was the basic culture solution. The complete culture solution was added with FBS having a final concentration of 10%, 100 U/ml penicillin and 100 µg/ml streptomycin. The solution was fully stirred by a magnetic blender, and the pH of the solution was adjusted to 6.8-7.0. The volume was kept constant. After being filtered and disinfected, the solution was kept into several containers which were sealed and stored at 4° C.
(§2) The cells were placed in a culture dish followed by the addition of complete culture liquid RPMI1640 and then cultured in a incubator comprising 5% CO2 at 37° C. In the exponential growth phase, the cells grew vigorously. If the culture liquid became yellow, the liquid should be replaced instantly.
(§3) The cells, at a concentration of 10^5/ml, were inoculated at a 96-pore culture plate. In each pore, 100 μl cells were inoculated. The cells were placed in a CO2 incubator until the cells were in the logarithmic growth phase. The samples to be tested were added according to the preset concentration gradient. For each gradient, the test was conducted at least three times. An equivalent amount of solvent for dissolving the samples was added in the control group. After 48 h of culture, each pore was added 20 μl MTT (5 mg/ml). The cells were cultured at 37° C. for 4 h. After the supernatant was carefully removed, 100 μl DMSO was added in each pore. The plate was agitated for about 10 minutes such that the precipitates were dissolved. After that, OD value was identified with a Microplate Reader at the wavelength of 490 nm. The survival rate of the cells at various concentrations was calculated according to the following formula:
(§4) Survival rate %=average OD value of the sample group/average OD value of the control group×100%
(§5) Plots of log survival rate of the cells vs. concentration of the medicament were constructed, and the IC50 value of each sample was calculated according to graphing methods.

Hela = experiment: In vitro cytotoxicity, IC50 by MTT method, Hela; assay type: cell-based
Protocol: as §1, §2, §3, §4, §5

Lovo = experiment: In vitro cytotoxicity, IC50 by MTT method, Lovo; assay type: cell-based
Protocol: as §1, §2, §3, §4, §5

HepG2 = experiment: In vitro cytotoxicity, IC50 by MTT method, HepG2; assay type: cell-based, human
Protocol: as §1, §2, §3, §4, §5

BGC-823 = experiment: In vitro cytotoxicity, IC50 by MTT method, BGC-823; assay type: cell-based
Protocol: as §1, §2, §3, §4, §5

Bel-7402 = experiment: In vitro cytotoxicity, IC50 by MTT method, Bel-7402; assay type: cell-based
Protocol: as §1, §2, §3, §4, §5

PLA-801 = experiment: In vitro cytotoxicity, IC50 by MTT method, PLA-801; assay type: cell-based
Protocol: as §1, §2, §3, §4, §5

Lewis lung cancer = settings: Lewis lung cancer, listed as CTX;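 note: mice implanted subcutaneously in the axilla with Lewis lung tumor cells, treated starting the following day, killed roughly three weeks after implantation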
S180 sarcoma = settings: S180 sarcoma, Dosage 30 (mg/ml), ip × 7qd, listed as CTX
[1] = NIH3T3 cell strain, read-out: IC50 NIH3T3
[2] = Hela cell strain, read-out: IC50 Hela
[3] = Lovo cell strain, read-out: IC50 Lovo
[4] = HepG2 cell strain, read-out: IC50 HepG2
[5] = BGC823 cell strain, read-out: IC50 BGC823
[6] = Bel7402 cell strain, read-out: IC50 Bel7402
[7] = PLA-801 cell strain, read-out: IC50 PLA-801

Compound | IC50 (NIH3T3; [1]) | IC50 (Hela; [2]) | IC50 (Lovo; [3]) | IC50 (HepG2; [4]) | IC50 (BGC-823; [5]) | IC50 (Bel-7402; [6]) | IC50 (PLA-801; [7]) | further results
2,9-dimethyl-β-carbolinium bromate [Compound 87] | 380 µM | 70 µM | 1820 µM | 200 µM | 260 µM | 370 µM | 280 µM | –
COC(=O)c1cc2c(cn1)[nH]c1ccccc12 [Compound 9, methyl β-carboline-3-carboxylate] | – | – | – | – | – | – | – | IC50 (NIH3T3; Mus musculus, NIH3T3): 200 µM; IC50 (Hela; Homo sapiens, HeLa): 100 µM; IC50 (Lovo; Homo sapiens, LoVo): 170 µM; IC50 (HepG2; Homo sapiens, HepG2): 2510 µM; IC50 (BGC-823; Homo sapiens, BGC-823): 290 µM; IC50 (Bel-7402; Homo sapiens, Bel-7402): 300 µM; IC50 (PLA-801): 310 µM
COc1ccc2c3ccnc(C)c3n(CCCc3ccccc3)c2c1 [Compound 8, 9-phenylpropyl-7-methoxy-1-methyl-β-carboline] | – | – | – | – | – | – | – | IC50 (NIH3T3; Mus musculus, NIH3T3, MTT, read-out: IC50): 20 µM; IC50 (Hela; Homo sapiens, Hela, MTT, read-out: IC50): 20 µM; IC50 (Lovo; Homo sapiens, Lovo, MTT, read-out: IC50): 30 µM; IC50 (HepG2; Homo sapiens, HepG2, MTT, read-out: IC50): 40 µM; IC50 (BGC-823; Homo sapiens, BGC-823, BGC823, MTT, read-out: IC50): 50 µM; IC50 (Bel-7402; Homo sapiens, Bel-7402, BeI7402, MTT, read-out: IC50): 40 µM; IC50 (PLA-801; PLA-801, MTT, read-out: IC50): 50 µM
CCOC(=O)c1cc2c3ccccc3n(CC(=O)c3ccccc3)c2cn1 [Compound 47, ethyl 9-acetophenone-β-carboline-3-carboxylate] | > 3000 µM | > 3000 µM | > 3000 µM | > 3000 µM | > 3000 µM | 1020 µM | > 3000 µM | –
CCOC(=O)c1cc2c3ccccc3n(Cc3ccccc3)c2c[n+]1Cc1ccccc1.[O-][I+2]([O-])[O-] [Compound 85, 2,9-dibenzyl-3-ethoxycarbonyl-β-carbolinium iodate] | 20 µM | 30 µM | 30 µM | 20 µM | 40 µM | 40 µM | 30 µM | –
CCn1c2ccccc2c2cc(C(=O)NN)ncc21 [Compound 51, 3-carbohydrazine 9-ethyl-β-carboline] | 510 µM | 240 µM | 190 µM | 260 µM | 110 µM | 370 µM | 510 µM | –
O=P1(N(CCCl)CCCl)NCCCO1 (centres unmarked) [cyclophosphamide, reference compound] | – | – | – | – | – | – | – | Body weight of the animals, end, First time (Lewis lung cancer; Dosage 30 (mg/ml), Iv × 7qd, first time): 21.3 g and 20.2 g; Body weight of the animals, end, Second time (Lewis lung cancer; Dosage 30 (mg/ml), Iv × 7qd, second time): 21.3 g and 21.0 g; Body weight of the animals, beginning, First time (Lewis lung cancer; Dosage 30, Iv × 7qd, first time): 20.1 g and 18.8 g; Body weight of the animals, beginning, Second time (Lewis lung cancer; Dosage 30, Iv × 7qd, second time): 18.9 g and 19.8 g; Body weight of the animals, beginning, First time (S180 sarcoma; first time): 19.4 g and 18.7 g; Body weight of the animals, end, First time (S180 sarcoma; first time): 20.9 g and 22.3 g; Weight of the tumor X ± SD, First time (S180 sarcoma; first time): 0.33 ± 0.14 g and 0.33 ± 0.12 g; Body weight of the animals, beginning, Second time (S180 sarcoma; second time): 19.8 g and 20.3 g; Body weight of the animals, end, Second time (S180 sarcoma; second time): 23.2 g and 20.9 g
CCOC(=O)c1cc2c3ccccc3n(CC(=O)c3ccccc3)c2c(C)n1 [Compound 61, ethyl 9-acetophenone-1-methyl-β-carboline-3-carboxylate] | 90 µM | 60 µM | 50 µM | 70 µM | 90 µM | 460 µM | 160 µM | –
CCCc1nc(C(=O)O)cc2c3ccccc3n(CCCc3ccccc3)c12 [Compound 75, 9-phenylpropyl-1-propyl-β-carboline-3-carboxylic acid] | – | – | – | – | – | – | 230 µM | IC50 (NIH3T3; Mus musculus, NIH3T3 cell strain, read-out: IC50 NIH3T3): 110 µM; IC50 (Hela; Homo sapiens, Hela cell strain, read-out: IC50 Hela): 140 µM; IC50 (Lovo; Homo sapiens, Lovo cell strain, read-out: IC50 Lovo): 80 µM; IC50 (HepG2; Homo sapiens, HepG2 cell strain, read-out: IC50 HepG2): 130 µM; IC50 (BGC-823; Homo sapiens, BGC-823, BGC823 cell strain, read-out: IC50 BGC823): 240 µM; IC50 (Bel-7402; Homo sapiens, Bel-7402, Bel7402 cell strain, read-out: IC50 Bel7402): 200 µM
